Laboratory results taken from patent US20100035824A1, “Synergistic Pharmaceutical Composition” (priority 2005, published 2010).

Test system: collagen-induced thrombocyte aggregation of human blood plasma which is rich of platelets
Experiment: Collagen-induced thrombocyte aggregation in platelet-rich human plasma (aggregometry)
Method: While the other conditions of the experiment remained the same as in Example 1, the collagen-induced thrombocyte aggregation was measured with different concentrations of genistein and glutamic acid dipeptide.

Compound	maximum thrombocyte aggregation (Example 3: 50 uM genistein, absence of glutamic acid dipeptide) [%]	maximum thrombocyte aggregation (Example 4: 50 uM genistein, 0 uM alanine dipeptide, control about 70%)	maximum thrombocyte aggregation (genistein 100 uM, collagen-induced, control without genistein about 65%)	maximum thrombocyte aggregation (genistein 150 uM, collagen-induced, control about 65%)	maximum thrombocyte aggregation (genistein 200 uM, collagen-induced, control about 65%)	thrombocyte aggregation (glutamic acid dipeptide 100 μmolar, without genistein, control 65%)
O=c1c(-c2ccc(O)cc2)coc2cc(O)cc(O)c12 [genistein, Genistein]	25	about 60%	about 35%	about 23%	about 5%	–
glutamic acid dipeptide	–	–	–	–	–	about 60%
